# Measured values as given in ChEMBL document CHEMBL3045970, “Development of a New Acaricide, Fenpyroximate” (J Pestic Sci, 1995).
# Test: Half life in diluvial and volcanic ash soils under upland laboratory conditions
# Assay type: physicochemical
structure (smiles),measurement,value
Cc1nn(C)c(Oc2ccccc2)c1/C=N/OCc1ccc(C(=O)OC(C)(C)C)cc1 [FENPYROXYMATE],t1/2,26.3 days
